Key:
[1] = In vivo pharmacokinetics, excretion and metabolism in rats
Protocol: Compound 1 was evaluated in vivo in bile-duct cannulated rats to study systemic pharmacokinetics (PK), excretion, and metabolism. In vivo 51% of the IV dose was excreted unchanged, predominately in the urine, with low (2% of parent) systemic exposure to an active N-dealkylated metabolite, 4,4,4-trifluoro-N-[(1S)-1-methyl-2-oxo-2-[[(7S)-6-oxo-5,7-dihydropyrido[2,3-d][3]benzazepin-7-yl]amino]ethyl]butanamide.

N1ICD cleavage (Notch1) = test: Inhibition of N1ICD cleavage in human tumor cell lines (N1ICD ELISA); assay type: cell-based; conditions: 24 hours treatment
From the text: To evaluate potency of Compound 1 in its ability to inhibit N1ICD cleavage, several human tumor cell lines are utilized. A2780 is a human ovarian cell line (Sigma-Aldrich, No. 93112519); MIA PaCa-2 is a human pancreas cell line (ATCC No. CRL-1420); BxPC-3 is a human pancreas cell line (ATCC No. CRL-1687); SW480 is a human colorectal cell line (ATCC No. CCL-228); HCT 116 is a human colorectal cell line (ATCC No. CCL-247); DLD-1 is a human colorectal cell line (ATCC No. CCL-221); MDA-MB-231 is a human mammary gland cell line (ATCC No. HTB-26); U-87 MG is a human glioblastoma cell line (ATCC No. HTB-14); A375 is a human malignant melanoma cell line (ATCC No. CRL-1619); CCRF-CEM is a human acute lymphoblastic leukemia (ALL) cell line (ATCC No. CCL-119); SUP-T1 is a human T-cell lymphoblastic leukemia cell line (ATCC No. CRL-1942); K-562 is a human chronic myelogenous leukemia (CML) cell line characterized by the presence of a fusion transcript comprised of the Bcr and Abl1 genes (ATCC No. CCL-243); Jurkat, Clone E6-1 is a human acute T-cell leukemia cell line (ATCC No. TIB-152); MOLT-3 is a human acute lymphoblastic leukemia (ALL) cell line (ATCC No. CRL-1552); MOLT-4 is a human acute lymphoblastic leukemia (ALL) cell line (ATCC No. CRL-1582); HEL 92.1.7 is a human erythroleukemia cell line (ATCC No. TIB-180). Each of the cell lines are obtained from the American Type Culture Collection (ATCC) at the ATCC number stated, except the A2780 cell line which is obtained from Sigma-Aldrich at the stated catalog number. The cells are grown in their respective culture media at 37° C. in 5% CO2 with humidity in the atmosphere. Cell culture media for A2780 human ovarian carcinoma is RPMI-1640 (without phenol red) with 2.05 mM L-glutamine, added 2 mM L-glutamine, 0.01 mg/ml insulin and 10% fetal bovine serum (FBS); for HCT 116 human colorectal carcinoma is McCoy's 5A with 1.5 mM L-glutamine, 0.075% Na-bicarbonate and 10% FBS; for SW480 human colorectal carcinoma is RPMI-1640 with 2.05 mM L-glutamine, 20 mM HEPES and 10% FBS; U-87 MG human glioblastoma is Minimal Essential Medium/Earl's Balanced Salt Solution with 2 mM L-glutamine, 0.1 mM Non-essential amino acids (NEAA), 1 mM Na-pyruvate, and 10% FBS; for MIA PaCa-2 human pancreatic carcinoma is Dulbecco's Modified Eagles Medium (DMEM) without Na-pyruvate, with high glucose ([…]), 4 mM L-glutamine, 2.5% horse serum and 10% FBS; for K-562 human CML is DMEM with high glucose ([…]), 4 mM L-glutamine, 10 mM HEPES, 0.1 mM NEAA, 1 mM Na-pyruvate and 10% FBS; for Jurkat, Clone E6-1 human acute T cell leukemia is RPMI-1640 with 2.05 mM L-glutamine, 2.5 g/L glucose, 10 mM HEPES, 1 mM Na-pyruvate, 0.075% Na-bicarbonate and 10% FBS; for A-375 human malignant melanoma and MDA-MB-231 human breast adenocarcinoma is DMEM with high glucose ([…]), 4 mM L-glutamine and 10% FBS; for BxPC-3 human pancreatic adenocarcinoma, DLD-1 human colorectal adenocarcinoma, SUP-T1 human lymphoblastic leukemia, MOLT-3 human ALL, Molt-4 human ALL, CCRF-CEM human ALL, and HEL 92.1.7 human erythroleukemia is RPMI-1640 with 2.05 mM L-glutamine, 2.5 g/L glucose, 20 mM HEPES, 1 mM Na-pyruvate, and 10% FBS. When 80-90% confluent, cells are treated with compound, dosing at 10 points of 1:3 dilutions across the range of 50 nM to 0.0025 nM, and with final dimethyl sulfoxide (DMSO) concentration at 0.01%. […]

[2] = In vivo metabolism and excretion in dogs
[3] = test system: mouse Notch 1 (nuclear N1ICD signal); test: Notch1 N1ICD Nuclear Accumulation Cellular Imaging Assay; assay type: cell-based; conditions: HEK293ΔE12 cells, 24 hours treatment, n=7
Protocol: (§1) HEK293ΔE12 cells (HEK293 cells are engineered to stably express mouse Notch 1 cDNA coding for amino acid 1703-2183, NP_032740.3, with 23 amino acid signal peptide sequence, […] (SEQ ID NO:1), at its N-terminus) are plated at 5000 cells/well in 96 well plates, incubated in Dulbecco's Modified Eagle's Medium-high glucose with 5% fetal bovine serum at 37° C., 5% CO2 for 24 hours. Cells are treated with test compound, dosing at 10 points of 1:3 dilutions across the range of 1000 nM to 0.05 nM, and with final dimethyl sulfoxide (DMSO) concentration at 0.2%. […] Plates are scanned with ACUMEN EXPLORER™ Laser-scanning fluorescence microplate cytometer (TTP LABTECH LTD) to measure total cell nuclear count/well and total nuclear area/well with fluorescence at 655 nm-705 nm (emission of DNA bound propidium iodide) and fluorescence of antibody binding to N1ICD in nuclear region at 505 nm-530 nm. The main assay output is a ratio of total fluorescence of nuclear N1ICD to total nuclear area, the normalized nuclear N1ICD signal. […] Concentration response and the IC50 are determined by curve fitting to a four parameter logistic for the nuclear N1ICD signal, while the % cell number is plotted in the same graph for cytotoxicity profiling.

major CYP450 enzymes = test: CYP450 inhibition and induction; assay type: in vitro ADME
HEK293ΔE12 cells = test: Relative cytotoxicity profiling (% cell number) in the N1ICD imaging assay; assay type: cell-based; conditions: 24 hours treatment
Protocol: as §1

[4] = Metabolism by liver microsomes optimized for oxidative CYP450 metabolism; assay type: in vitro ADME
[5] = Atropisomer equilibrium in solution (1H NMR and LC-MS); assay type: physicochemical; conditions: ambient temperature, after 24 hours
Protocol: In aqueous solutions, 8-9% of atropisomer 2 (minor atropisomer) is detected by ^1H NMR and LC-MS in equilibrium with atropisomer 1 (major atropisomer) at ambient temperature after 24 hours. In organic solvents, at ambient temperature after 24 hours, approximately 1-2% of atropisomer 2 is detected by ^1H NMR and LC-MS in equilibrium with atropisomer 1. Although detectable by ^1H NMR and LC-MS analysis, atropisomer 2 is not isolable.

C[C@H](NC(=O)CCC(F)(F)F)C(=O)N[C@@H]1C(=O)N(CCO)c2ncccc2-c2ccccc21 [Compound 1, 4,4,4-trifluoro-N-[(1S)-2-[[(7S)-5-(2-hydroxyethyl)-6-oxo-7H-pyrido[2,3-d][3]benzazepin-7-yl]amino]-1-methyl-2-oxo-ethyl]butanamide]
dose excreted unchanged ([1]; bile-duct cannulated rats, IV dose, predominately in the urine): 51%
additional circulating metabolites (profiling of rat plasma) ([1]; rat plasma): absence of additional circulating metabolites
major oxidative metabolites in circulation or excreta ([1]; rats in vivo): not observed
IC50 (N1ICD cleavage (Notch1); A2780 cells): 1.03 nM
IC50 (N1ICD cleavage (Notch1); A-375 cells): 0.48 nM
IC50 (N1ICD cleavage (Notch1); BxPC-3 cells): 0.39 nM
IC50 (N1ICD cleavage (Notch1); CCRF-CEM cells): 0.76 nM
IC50 (N1ICD cleavage (Notch1); DLD-1 cells): 0.98 nM
IC50 (N1ICD cleavage (Notch1); HCT 116 cells): 0.72 nM
IC50 (N1ICD cleavage (Notch1); HEL 92.1.7 cells): 0.23 nM
IC50 (N1ICD cleavage (Notch1); Jurkat cells): 5.95 nM
IC50 (N1ICD cleavage (Notch1); K-562 cells): 0.74 nM
IC50 (N1ICD cleavage (Notch1); MDA-MB-231 cells): 0.5 nM
IC50 (N1ICD cleavage (Notch1); MIA PaCa-2 cells): 0.71 nM
IC50 (N1ICD cleavage (Notch1); MOLT-3 cells): 0.61 nM
IC50 (N1ICD cleavage (Notch1); MOLT-4 cells): 0.74 nM
IC50 (N1ICD cleavage (Notch1); SUP-T1 cells): 1.24 nM
IC50 (N1ICD cleavage (Notch1); SW480 cells): 0.1 nM
IC50 (N1ICD cleavage (Notch1); U-87 MG cells): 0.28 nM
clearance by excretion of parent compound ([2]; bile-duct intact dogs): appreciable clearance by excretion of parent compound
major circulating active metabolites ([2]; bile-duct intact dogs): absence of major circulating active metabolites
major oxidative metabolites in circulation or excreta ([2]; dogs in vivo): not observed
IC50 [3]: 0.41 nM
inhibition or induction of the major CYP450 enzymes (major CYP450 enzymes): not an inhibitor or inducer
concentration up to which cell number is not affected (cytotoxicity profiling) (HEK293ΔE12 cells): > 1000 nM
metabolism by liver microsomes [4]: not metabolized to any appreciable extent
atropisomer 2 (minor atropisomer) in equilibrium with atropisomer 1 ([5]; aqueous solutions): 8-9%
atropisomer 2 (minor atropisomer) in equilibrium with atropisomer 1 ([5]; organic solvents): 1-2%

From patent publication US8569286B2, “Notch pathway signaling inhibitor compound” (Eli Lilly and Company, priority 2011, dated 2013)
